Reference: patent US8629242B2, “Methods of inhibiting calcineurin with ApoE analogs” (Cognosci, Inc., priority 2007, dated 2014)

Assays:
peritoneal macrophages = experiment: In vitro LPS+IFN-γ challenge of macrophages from COG 133-treated EAE mice; format: cell-based; conditions: macrophages collected dpi 35 from treated mice, vs saline-treated mice, p<0.001
Method: FIG. 4. In vivo exposure to COG 133 suppressed in vitro production of inflammatory effectors by peritoneal macrophages. TNF-α (A) and IL-6 (B) were measured by ELISA, and nitrite in culture medium was measured by a Sievers NO Analyzer (C). Statistical analysis was performed by two-tailed student's t test and significance was shown as ** (p<0.01) and *** (p<0.001).
To examine the effect of COG 133 (SEQ ID NO: 1) treatment on activation of macrophages in EAE mice, macrophages were collected from a subset of saline and COG 133-treated mice on dpi 35 and then challenged in vitro with the immune stimulators lipopolysaccharide and interferon-γ (LPS+IFN-γ). Nitrite in culture medium was measured by a Sievers NO Analyzer and TNF-α and IL-6 were measured by ELISA.

[1] = tested on: cuprizone-induced demyelination in corpus callosum; experiment: Cuprizone-induced demyelination model; format: in vivo, C57BL/6J male mice
Method: FIG. 6. COG 112 promotes remyelination of the corpus callosum in a cuprizone model of demyelination. C57BL/6J male mice were fed with 0.2% cuprizone-containing diet for 5 weeks to induce complete demyelination in the corpus callosum. Starting from week 6, cuprizone was removed and the animals were treated with either vehicle or COG 112 (1 mg/kg) by i.p. injection three times a week for 4 weeks. Myelination in corpus callosum was evaluated on a scale from 0 to 3 after staining brain sections with Luxol Fast Blue (LFB). The data were collected from 4 animals of each group and 2 sections from each animal. A non-parametric Mann-Whitney test was used to compare differences between groups. Panels A and B (100×) are representative pictures of LFB-stained sections from vehicle- and COG 112-treated animals, respectively. Panels C and D (400×) are representative sections labeled with anti-GST-π-FITC antibody (marker for mature oligodendrocytes) from vehicle- and COG 112-treated animals, respectively.
In an EAE model, treatment with COG 112 reduced demyelination in the spinal cord (Example 1). Therefore, we tested the effect of COG peptides on remyelination in a cuprizone-induced demyelination model. C57BL/6J male mice were fed with 0.2% cuprizone-containing mouse chow for 5 weeks to cause demyelination. […]

enriched OPCs = experiment: OPC proliferation (BrdU) in enriched OPC culture; format: cell-based, rat; conditions: 1 μM, three days in proliferation medium
Method: FIG. 10. ApoE analog promotes proliferation of OPCs in culture. Cultures enriched in OPCs were grown in proliferation media containing BrdU in the presence and absence of 1 μM COG 112 or a peptide control. Cells were subsequently labeled with Hoescht stain to detect nuclei, a BrdU antibody to detect proliferating cells, and an A2B5 antibody to identify OPCs (left panel). The number of cells per field were counted for each condition (right panel). In graph, the Hoescht bars correspond to the total number of A2B5^+/Hoescht^+ cells, while the BrdU bars correspond to […] cells.
Enriched OPCs were collected by shaking a primary culture of P2 rat pup brain. Proliferation medium containing COG 112 (1 μM), BrdU (20 μM), 10 ng/mL FGF and PDGF was added to the enriched OPC cultures. After three days in culture, cells were stained with Hoescht stain to show nuclei, a BrdU antibody to identify proliferating cells, and an A2B5 antibody to identify OPCs (FIG. 10). Antennapedia, the prefix peptide of COG 112, was used as a control.

Row | Molecule | release of IL-6 (peritoneal macrophages) | release of NO (peritoneal macrophages) | release of TNF-α (peritoneal macrophages) | LFB staining of myelin within corpus callosum ([1]; 1 mg/kg i.p. three times a week for 4 weeks after 5 weeks cuprizone) | GST-π+ cells (mature oligodendrocytes) within the corpus callosum ([1]; 1 mg/kg i.p. three times a week for 4 weeks, vs vehicle) | number of A2B5+/BrdU+ cells (enriched OPCs)
1 | CC(=O)N[C@@H](CC(C)C)C(=O)N[C@@H](CCCNC(=N)N)C(=O)N[C@H](C(=O)N[C@@H](CCCNC(=N)N)C(=O)N[C@@H](CC(C)C)C(=O)N[C@@H](C)C(=O)N[C@@H](CO)C(=O)N[C@@H](Cc1c[nH]cn1)C(=O)N[C@@H](CC(C)C)C(=O)N[C@@H](CCCNC(=N)N)C(=O)N[C@@H](CCCCN)C(=O)N[C@@H](CC(C)C)C(=O)N[C@@H](CCCNC(=N)N)C(=O)N[C@@H](CCCCN)C(=O)N[C@@H](CCCNC(=N)N)C(=O)N[C@@H](CC(C)C)C(=O)N[C@@H](CC(C)C)C(N)=O)C(C)C [COG 133] | significantly lower response | significantly lower levels of NO | significantly lower response |  |  | 
2 | Ac-RQIKIWFQNRRMKWKKCLRVRLASHLRKLRKRLL-NH2 [COG 112] |  |  |  | significantly increased | Significantly more | significantly increased
